Data: the supplement of paper PMC10307832

How the values were obtained:
Assay in all cases: relative viability (nuclei count vs DMSO), 5 days (fraction); higher = more cells survive
A-427 = test system: A-427
Method in brief: (§1)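 One day after seeding in 1536-well plates, lung cancer cell lines were dosed by pin tool. Dosing was either single-drug or a fixed anchor-drug dose plus five library-drug doses (not always all listed) in √10 steps. After 5 days, nuclei were stained in one fix-and-stain step and counted on 4× images, and relative viability is the nuclei count of treated wells over that of vehicle wells, given as the median of duplicate plates.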

CAL-12T = test system: CAL-12T
Method in brief: as §1

EPLC-272H = test system: EPLC-272H
Method in brief: as §1

HOP-62 = test system: HOP-62
Method in brief: as §1

LCLC-103H = test system: LCLC-103H
Method in brief: as §1

LXF-289 = test system: LXF-289
Method in brief: as §1

NCI-H1395 = test system: NCI-H1395
Method in brief: as §1

NCI-H1651 = test system: NCI-H1651
Method in brief: as §1

NCI-H1975 = test system: NCI-H1975
Method in brief: as §1

NCI-H1993 = test system: NCI-H1993
Method in brief: as §1

NCI-H2085 = test system: NCI-H2085
Method in brief: as §1

NCI-H2087 = test system: NCI-H2087
Method in brief: as §1

NCI-H2170 = test system: NCI-H2170
Method in brief: as §1

NCI-H3122 = test system: NCI-H3122
Method in brief: as §1

NCI-H596 = test system: NCI-H596
Method in brief: as §1

NCI-H647 = test system: NCI-H647
Method in brief: as §1

NCI-H650 = test system: NCI-H650
Method in brief: as §1

PC-14 = test system: PC-14
Method in brief: as §1

RERF-LC-KJ = test system: RERF-LC-KJ
Method in brief: as §1

Cc1cnc(-c2cnc(NCCNc3ccc(C#N)cn3)nc2-c2ccc(Cl)cc2Cl)[nH]1 + NC(=O)Nc1cc(-c2cccc(F)c2)sc1C(=O)N[C@H]1CCCNC1 [AZD7762] (partner 0.2 µM) was tested, and the relative viability (A-427; first compound 0.08 µM) was 0.838, the relative viability (A-427; first compound 0.253 µM) was 0.602 and the relative viability (A-427; first compound 0.8 µM) was 0.692. It also gave a relative viability (A-427; first compound 2.53 µM) of 0.714, a relative viability (CAL-12T; first compound 0.08 µM) of 0.586 and a relative viability (CAL-12T; first compound 0.253 µM) of 0.567. For the same compound, the relative viability (CAL-12T; first compound 0.8 µM) was 0.544, the relative viability (CAL-12T; first compound 2.53 µM) was 0.693 and the relative viability (EPLC-272H; first compound 0.08 µM) was 0.36. The relative viability (EPLC-272H; first compound 0.253 µM) was 0.269, the relative viability (EPLC-272H; first compound 0.8 µM) was 0.224 and the relative viability (EPLC-272H; first compound 2.53 µM) was 0.202. It also gave a relative viability (HOP-62; first compound 0.08 µM) of 0.817, a relative viability (HOP-62; first compound 0.253 µM) of 0.383 and a relative viability (HOP-62; first compound 0.8 µM) of 0.45. For the same compound, the relative viability (HOP-62; first compound 2.53 µM) was 0.748, the relative viability (LCLC-103H; first compound 0.08 µM) was 0.86 and the relative viability (LCLC-103H; first compound 0.253 µM) was 0.76. For the same compound, the relative viability (LCLC-103H; first compound 0.8 µM) was 0.714, the relative viability (LCLC-103H; first compound 2.53 µM) was 0.757 and the relative viability (LXF-289; first compound 0.08 µM) was 1.16. It also gave a relative viability (LXF-289; first compound 0.253 µM) of 1.05, a relative viability (LXF-289; first compound 0.8 µM) of 1.18 and a relative viability (LXF-289; first compound 2.53 µM) of 1.19. For the same compound, the relative viability (NCI-H1395; first compound 0.08 µM) was 0.425, the relative viability (NCI-H1395; first compound 0.253 µM) was 0.43 and the relative viability (NCI-H1395; first compound 0.8 µM) was 0.4. For the same compound, the relative viability (NCI-H1395; first compound 2.53 µM) was 0.374, the relative viability (NCI-H1651; first compound 0.08 µM) was 0.506 and the relative viability (NCI-H1651; first compound 0.253 µM) was 0.406. For the same compound, the relative viability (NCI-H1651; first compound 0.8 µM) was 0.454, the relative viability (NCI-H1651; first compound 2.53 µM) was 0.459 and the relative viability (NCI-H1975; first compound 0.08 µM) was 0.818. For the same compound, the relative viability (NCI-H1975; first compound 0.253 µM) was 0.583, the relative viability (NCI-H1975; first compound 0.8 µM) was 0.575 and the relative viability (NCI-H1975; first compound 2.53 µM) was 0.506. The relative viability (NCI-H1993; first compound 0.08 µM) was 0.918, the relative viability (NCI-H1993; first compound 0.253 µM) was 0.683 and the relative viability (NCI-H1993; first compound 0.8 µM) was 0.703. The relative viability (NCI-H1993; first compound 2.53 µM) was 0.9, the relative viability (NCI-H2085; first compound 0.08 µM) was 1.02 and the relative viability (NCI-H2085; first compound 0.253 µM) was 0.77. For the same compound, the relative viability (NCI-H2085; first compound 0.8 µM) was 0.901, the relative viability (NCI-H2085; first compound 2.53 µM) was 1.05 and the relative viability (NCI-H2087; first compound 0.08 µM) was 1.3. It also gave a relative viability (NCI-H2087; first compound 0.8 µM) of 1.3, a relative viability (NCI-H2087; first compound 2.53 µM) of 1.17 and a relative viability (NCI-H2170; first compound 0.08 µM) of 1.01. It also gave a relative viability (NCI-H2170; first compound 0.8 µM) of 0.774, a relative viability (NCI-H2170; first compound 2.53 µM) of 0.695 and a relative viability (NCI-H3122; first compound 0.08 µM) of 0.995. It also gave a relative viability (NCI-H3122; first compound 0.8 µM) of 1.03, a relative viability (NCI-H3122; first compound 2.53 µM) of 0.98 and a relative viability (NCI-H596; first compound 0.08 µM) of 1.3. For the same compound, the relative viability (NCI-H596; first compound 0.253 µM) was 0.974, the relative viability (NCI-H596; first compound 0.8 µM) was 1.09 and the relative viability (NCI-H596; first compound 2.53 µM) was 1.01. It also gave a relative viability (NCI-H647; first compound 0.08 µM) of 0.439, a relative viability (NCI-H647; first compound 0.253 µM) of 0.341 and a relative viability (NCI-H647; first compound 0.8 µM) of 0.405. It also gave a relative viability (NCI-H647; first compound 2.53 µM) of 0.364, a relative viability (NCI-H650; first compound 0.08 µM) of 0.979 and a relative viability (NCI-H650; first compound 0.253 µM) of 0.872. For the same compound, the relative viability (NCI-H650; first compound 0.8 µM) was 0.892, the relative viability (NCI-H650; first compound 2.53 µM) was 1.03 and the relative viability (PC-14; first compound 0.08 µM) was 0.347. For the same compound, the relative viability (PC-14; first compound 0.253 µM) was 0.316, the relative viability (PC-14; first compound 0.8 µM) was 0.365 and the relative viability (PC-14; first compound 2.53 µM) was 0.392. It also gave a relative viability (RERF-LC-KJ; first compound 0.08 µM) of 1.08, a relative viability (RERF-LC-KJ; first compound 0.253 µM) of 0.801 and a relative viability (RERF-LC-KJ; first compound 0.8 µM) of 0.881. For the same compound, the relative viability (RERF-LC-KJ; first compound 2.53 µM) was 0.985.
